The values that follow come from US20250295656A1, “COMBINATION OF LURBINECTEDIN AND IMMUNE CHECKPOINT INHIBITORS” (priority 2020, published 2025).

The test system of experiment [1] is U2OS cells stably expressing HMGB1-GFP. Description: HMGB1 release (loss of nuclear HMGB1-GFP fluorescence). Format: cell-based, human. The conditions noted are these: lurbinectedin 1 nM to 1 μM, MTX 1 and 3 μM, medium to late time points. As for the experimental part:
(§1) (a) Human osteosarcoma U2OS (a), human breast cancer HCC70 (b) human colon cancer HT29 cells (c) and murine methylcholantrene-induced fibrosarcoma MCA205 cells (d) were treated with lurbinectedin (Lurbi, 1 nM, 10 nM, 100 nM and 1 μM) for the indicated times. Subsequently, the cells were stained with 1 μM Hoechst 33342 and 1 μM propidium iodide and assessed for the loss of viability by automated image acquisition. Images were segmented, cellular debris was excluded and the number of cells with normal nuclear morphology was enumerated. Cells stably expressing CALR-GFP were treated as above. Following the cells were fixed with 3.7% of PFA, stained with 1 μM Hoechst 33342 and assessed by automated image acquisition. Images were segmented, cellular debris was excluded and CALR-GFP granularity (a surrogate marker of CALR exposure) was evaluated in the cytoplasmic region of cells with normal nuclear morphology. Wild type cells were treated as above and then assessed for cytoplasmic quinacrine granularity (after staining with the ATP-sensitive dye quinacrine together with Hoechst 33342) by automated image acquisition, segmentation and analysis. Cells stably expressing HMGB1-GFP were treated as above and then assessed for nuclear HMGB1-GFP fluorescence intensity. The cells were fixed and stained with Hoechst 33342 and images were acquired, segmented and analyzed. […]

Experiment [2] has as its system Murine fibrosarcoma MCA205 cells. Description: In vitro cell death of MCA205 cells prepared for vaccination. Format: cell-based, mouse. Conditions: 1 μM lurbinectedin for 24 h.
Experiment [3] relates to human osteosarcoma U2OS cells. Description: Loss of viability by nuclear morphology (Hoechst 33342), automated microscopy. The experiment is classed as cell-based. The conditions noted are these: lurbinectedin 1 nM to 1 μM, 4, 8, 16 and 32 hours, comparable to MTX 1 and 3 μM. As for the experimental part:
as §1

In experiment [4] the test system is U2OS biosensor cells expressing GFP under the MX1 promoter. Description: Type I IFN response (MX1-GFP biosensor cells treated with supernatant). Conditions: supernatant of treated U2OS cells after 48 hours fresh media; biosensor cells 48 hours; throughout all time points. The experiment is classed as cell-based, human. On the procedure: In a systematic screening campaign, the capacity of lurbinectedin to induce immunogenic cell death in cancer cells was assessed in human osteosarcoma U2OS cells stably expressing fluorescent biosensors for the detection of CALR-relocation (as a surrogate marker for CALR surface exposure), HMGB1 release and Type I IFN responses together with U2OS WT cells stained with the ATP-sensitive dye quinacrine. […] The induction of cell death was evaluated based on changes in the nuclear morphology visualized by means of the DNA intercalating dye Hoechst 33342.

Experiment [5] relates to U2OS cells stably expressing CALR-GFP. Description: CALR-GFP granularity (surrogate marker of CALR exposure). The experiment is classed as cell-based, human. The conditions noted are these: lurbinectedin 1 nM to 1 μM, MTX 1 and 3 μM, 4-32 hours, vs untreated controls. As for the experimental part: as §1

`COc1ccc2[nH]c3c(c2c1)CCN[C@]31CS[C@@H]2c3c(OC(C)=O)c(C)c4c(c3[C@H](COC1=O)N1[C@@H]2[C@H]2c3c(cc(C)c(OC)c3O)C[C@@H]([C@@H]1O)N2C)OCO4` [lurbinectedin]: in experiment [1], the “nuclear GFP signal (HMGB1-GFP)” value is on record as “significant decrease”. Besides, in experiment [2], the cell death result is “approximately 70%”. Moreover, the cellular viability result in experiment [3] was “dose- and time-dependent drop”. For the same compound, in experiment [4], the “de novo GFP signal intensity (type 1 IFN response)” value is recorded as “significant increase”. Besides, the CALR-granularity result in experiment [5] was “time- and dose-dependent increase”.
